Consider eleven compounds from BindingDB's records for doi:10.3109/14756361003691860 (Tarbiat Modares University, 2010).

SMILES strings stand for the structures.

Acetylcholinesterase, sequence (P22303 whole entry): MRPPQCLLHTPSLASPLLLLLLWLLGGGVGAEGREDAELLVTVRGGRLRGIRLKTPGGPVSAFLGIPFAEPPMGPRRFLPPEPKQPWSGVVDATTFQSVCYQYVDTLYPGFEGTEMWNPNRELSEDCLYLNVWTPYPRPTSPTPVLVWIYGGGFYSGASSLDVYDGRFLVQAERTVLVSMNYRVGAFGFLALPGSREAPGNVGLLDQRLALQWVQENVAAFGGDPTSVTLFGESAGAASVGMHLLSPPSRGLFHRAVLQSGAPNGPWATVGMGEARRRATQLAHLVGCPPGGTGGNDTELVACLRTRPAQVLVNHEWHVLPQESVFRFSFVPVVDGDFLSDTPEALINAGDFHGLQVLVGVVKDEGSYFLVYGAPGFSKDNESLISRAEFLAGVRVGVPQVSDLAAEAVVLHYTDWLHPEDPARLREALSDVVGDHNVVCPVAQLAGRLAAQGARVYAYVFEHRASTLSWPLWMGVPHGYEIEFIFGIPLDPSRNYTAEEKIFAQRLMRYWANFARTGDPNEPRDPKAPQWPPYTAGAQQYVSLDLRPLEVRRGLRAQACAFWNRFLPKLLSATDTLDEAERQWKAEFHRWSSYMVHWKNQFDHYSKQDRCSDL

The assay addresses Acetylcholinesterase (Homo sapiens, UniProt P22303). Description: AChE Inhibition Assay. Particulars: pH 7.4; 37 °C. The protocol:
The reaction was carried out at 37°C in 70 mM phosphate buffer (Na2HPO4/NaH2PO4, pH 7.4) containing the enzyme (20 μl volume, diluted 100 times in phosphate buffer, pH 7.4), DTNB (5,5-dithiobis(2-nitrobenzoic acid)) (10−4M concentration) and ATCh (1.35 × 10−4M concentration). The absorbance change at 37°C was monitored with the spectrophotometer at 412 nm for 3 min. and three replicates were run in each experiment.
By IC50 is commonly meant the concentration at which inhibition is half-maximal. Read a high IC50 as a need for much substance. For `CCCN(CP(=O)(O)O)CP(=O)(O)O` [N-Propyliminobis(methylenephosphonic acid) (3)], the midpoint of inhibition, the IC50, lay at 12.7 mM.
As to `O=P(O)(O)CN1CCCN(CP(=O)(O)O)CC1` [Homopiperazine-1,4-bis(methylenephosphonic acid) (11)], the IC50 was determined as 28.7 mM.
With `O=P(O)(O)CN(CP(=O)(O)O)C1CCCCC1` [N-Cyclohexyliminobis(methylenephosphonic acid) (10)], 9.96 mM corresponded to half-maximal inhibition (IC50).
On to `CCCCCN(CP(=O)(O)O)CP(=O)(O)O` [N-Pentyliminobis(methylenephosphonic acid) (4)], for which it took 11.7 mM to reach half-maximal inhibition (IC50).
`CCN(CP(=O)(O)O)CP(=O)(O)O` [N-Ethyliminobis(methylenephosphonic acid) (2)] yielded a 50% inhibitory concentration (IC50) of 22.1 mM.
`O=P(O)(O)CN(CCc1ccccc1)CP(=O)(O)O` [N-2-Phenyl ethyliminobis(methylenephosphonic acid) (8)] displayed an IC50 of 11 mM.
Consider `O=P(O)(O)CN(Cc1ccccc1)CP(=O)(O)O` [N-Benzyliminobis(methylenephosphonic acid) (7)], for which the IC50 stood at 11.9 mM.
In turn, `CN(CP(=O)(O)O)CP(=O)(O)O` [N-Methyliminobis(methylenephosphonic acid) (1)] returned an IC50 of 28.1 mM.
The value for `CCCCC(CC)CN(CP(=O)(O)O)CP(=O)(O)O` (stereo unspecified) [N-2-Ethyl hexyliminobis(methylenephosphonic acid) (6)] was 9.48 mM; that for `O=P(O)(O)CN(CP(=O)(O)O)C1CCCC1` [N-Cyclopentyliminobis(methylenephosphonic acid) (9)] was 11.1 mM; that for `CC(C)N(CP(=O)(O)O)CP(=O)(O)O` [N-Isopropyliminobis(methylenephosphonic acid) (5)] was 9.11 mM.
